The experiment addresses T1, human TRPA1 (Homo sapiens, UniProt O75762).
T1 construct: expressed in transfected cells; host or cells: CHO cells
The experiment is described as follows: TRPA1 FLIPR Tetra calcium influx assay in CHO cells (block of cinnamaldehyde-induced calcium influx). In kind it is cell-based. Conditions: Table 2; CHO cells expressing TRPA1; agonist cinnamaldehyde 75 uM; 20 min compound incubation; Hill coefficient fixed to 1.5; read-out: hTRPA1 CHO Ca2+ AUC EVO (IC50). Here is the method:
IC50s (effective concentration) of compounds on the human and rat TRPA1 channels were determined using a FLIPR Tetra instrument. CHO cells expressing TRPA1 were plated into 384-well plates, incubated overnight at 37 C, and loaded with BD calcium indicator dye for 1 hr at 37° C. followed by 15 minutes at room temperature. The assay buffer was Hank's Balanced Salt Solution (HBSS) containing 20 mM HEPES (pH readjusted to 7.4) along with 0.02% BSA.
Following dye load and plate cool down, compounds were added to the cells using FLIPR Tetra. Plates were then incubated with compounds for 20 minutes at room temperature prior to adding agonist. Following this incubation, ˜EC80 concentration of cinnamaldehyde (75 uM for human TRPA1 and 45 uM for rat TRPA1) was added to active the channels and block of cinnamaldehyde induced calcium influx was measured.
IC50s were fit with a standard Hill function, keeping the Hill coefficient (n) fixed to 1.5. Fixing the Hill coefficient will generally reduce variability of the IC50 determination. The IC50s were individually examined to make sure the MIN and MAX points were set correctly prior to validation of the results.

Each structure is given as a SMILES string. pIC50: −log10 of the molar value.

T1 sequence (O75762 whole entry): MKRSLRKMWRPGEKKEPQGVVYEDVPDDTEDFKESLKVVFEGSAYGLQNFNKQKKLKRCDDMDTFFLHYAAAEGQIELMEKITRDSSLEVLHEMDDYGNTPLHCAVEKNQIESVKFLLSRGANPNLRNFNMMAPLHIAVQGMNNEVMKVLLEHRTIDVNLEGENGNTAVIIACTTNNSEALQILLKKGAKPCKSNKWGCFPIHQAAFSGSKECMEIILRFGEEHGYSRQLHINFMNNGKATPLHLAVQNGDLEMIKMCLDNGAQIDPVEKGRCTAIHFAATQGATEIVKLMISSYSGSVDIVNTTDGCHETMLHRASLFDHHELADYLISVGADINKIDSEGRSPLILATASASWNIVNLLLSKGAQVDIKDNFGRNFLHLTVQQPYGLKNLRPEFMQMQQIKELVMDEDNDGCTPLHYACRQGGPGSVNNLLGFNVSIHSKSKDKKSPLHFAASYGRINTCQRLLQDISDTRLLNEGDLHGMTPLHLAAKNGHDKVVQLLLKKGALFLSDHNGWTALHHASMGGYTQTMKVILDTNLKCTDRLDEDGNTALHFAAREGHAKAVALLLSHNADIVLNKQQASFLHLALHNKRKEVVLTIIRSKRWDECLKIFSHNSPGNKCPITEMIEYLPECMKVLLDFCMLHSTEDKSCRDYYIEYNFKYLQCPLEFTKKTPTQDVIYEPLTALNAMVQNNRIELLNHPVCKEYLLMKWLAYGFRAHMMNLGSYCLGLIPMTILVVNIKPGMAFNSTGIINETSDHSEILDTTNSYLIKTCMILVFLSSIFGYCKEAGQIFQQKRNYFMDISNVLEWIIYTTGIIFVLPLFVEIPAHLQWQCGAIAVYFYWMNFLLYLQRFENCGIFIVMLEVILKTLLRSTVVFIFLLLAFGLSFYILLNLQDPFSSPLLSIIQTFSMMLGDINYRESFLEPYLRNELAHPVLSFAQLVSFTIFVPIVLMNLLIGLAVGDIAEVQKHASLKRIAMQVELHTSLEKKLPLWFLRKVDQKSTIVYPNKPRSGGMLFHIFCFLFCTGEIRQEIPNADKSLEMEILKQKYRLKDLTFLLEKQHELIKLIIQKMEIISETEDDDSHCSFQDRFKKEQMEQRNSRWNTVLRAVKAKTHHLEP

As to `CC1(C)[C@@H]2[C@@H](C(=O)NCc3cc(-c4cnc(C(F)(F)F)nc4)ncc3F)N(S(=O)(=O)c3ccc(F)cc3)C[C@@H]21` [Example 72, (1S,4S,5R)-3-(4-fluorophenyl)sulfonyl-N-[[5-fluoro-2-[2-(trifluoromethyl)pyrimidin-5-yl]-4-pyridyl]methyl]-6,6-dimethyl-3-azabicyclo[3.1.0]hexane-4-carboxamide], the pIC50 is 7.83.
As for `C[C@H]1[C@H](F)C[C@@H](C(=O)NCc2cn([C@H]3CC[C@H](C(F)(F)F)CC3)nc2C(F)(F)F)N1S(=O)(=O)c1ccc(F)cc1` [Example 147, (2S,4R,5S)-4-fluoro-1-(4-fluorophenyl)sulfonyl-5-methyl-N-[[3-(trifluoromethyl)-1-[4-(trifluoromethyl)cyclohexyl]pyrazol-4-yl]methyl]pyrrolidine-2-carboxamide], the pIC50 was 7.61.
The result for `C[C@@]1(F)C[C@@H](C(=O)NCc2cc(Cl)nc(-c3cnc(C(F)(F)F)nc3)c2)N(S(=O)(=O)c2ccc(F)cc2)C1` [Example 75, (2S,4R)-N-[[2-chloro-6-[2-(trifluoromethyl)pyrimidin-5-yl]-4-pyridyl]methyl]-4-fluoro-1-(4-fluorophenyl)sulfonyl-4-methyl-pyrrolidine-2-carboxamide] reads 7.18.
Next, `C[C@H]1[C@H](F)C[C@@H](C(=O)NCc2cc(-c3cnc(C(F)(F)F)nc3)ncc2OCC(F)(F)F)N1S(=O)(=O)c1ccc(F)cc1` [Example 122, (2S,4R,5S)-4-fluoro-1-(4-fluorophenylsulfonyl)-5-methyl-N-((5-(2,2,2-trifluoroethoxy)-2-(2-(trifluoromethyl)pyrimidin-5-yl)pyridin-4-yl)methyl)pyrrolidine-2-carboxamide]: 8.26; `C[C@H]1CC[C@@H](C(=O)NCc2cc(-c3cnc(C(F)(F)F)nc3)ncc2F)N1S(=O)(=O)c1ccc(F)cc1` [Example 17, (2S,5S)-1-(4-fluorophenyl)sulfonyl-N-[[5-fluoro-2-[2-(trifluoromethyl)pyrimidin-5-yl]-4-pyridyl]methyl]-5-methyl-pyrrolidine-2-carboxamide]: 8.86.
Next, `O=C(NCc1cc(-c2cnc(C(F)(F)F)nc2)ncn1)[C@@H]1[C@H]2C[C@H]2CN1S(=O)(=O)c1ccc(F)cc1` [Example 65, (1S,2S,5R)-3-(4-fluorophenyl)sulfonyl-N-[[6-[2-(trifluoromethyl)pyrimidin-5-yl]pyrimidin-4-yl]methyl]-3-azabicyclo[3.1.0]hexane-2-carboxamide]: 7.19.
Consider `C[C@H]1[C@H](F)C[C@@H](C(=O)NCc2cc(-c3cnc(C(F)(F)F)cn3)ncc2C(F)(F)F)N1S(=O)(=O)c1ccc(F)cc1` [Example 112, (2S,4R,5 S)-4-fluoro-1-(4-fluorophenylsulfonyl)-5-methyl-N-((5-(trifluoromethyl)-2-(5-(trifluoromethyl)pyrazin-2-yl)pyridin-4-yl)methyl)pyrrolidine-2-carboxamide], for which the pIC50 is 8.71.
The result for `C[C@H]1[C@H](F)C[C@@H](C(=O)NCc2cc(-c3cnc(C(F)(F)F)cn3)ncn2)N1S(=O)(=O)c1ccc(F)cc1` [Example 87, (2S,4R,5S)-4-fluoro-1-(4-fluorophenyl)sulfonyl-5-methyl-N-[[6-[5-(trifluoromethyl)pyrazin-2-yl]pyrimidin-4-yl]methyl]pyrrolidine-2-carboxamide] reads 6.74.
Next, `C[C@H]1[C@H](F)C[C@@H](C(=O)NCc2cc(-c3cnc(C(F)(F)F)nc3)c(C#N)c(C3CC3)n2)N1S(=O)(=O)c1ccc(F)cc1` [Example 142, (2S,4R,5S)—N-([5-cyano-6-cyclopropyl-4-[2-(trifluoromethyl)pyrimidin-5-yl]pyridin-2-yl]methyl)-4-fluoro-1-[(4-fluorobenzene)sulfonyl]-5-methylpyrrolidine-2-carboxamide]: 7.92; `C[C@H]1[C@H](F)C[C@@H](C(=O)NCc2cc(-c3cnc(C(F)(F)F)nc3)ncc2CF)N1S(=O)(=O)c1ccc(F)cc1` [Example 138]: 7.93; `C[C@H]1[C@H](F)C[C@@H](C(=O)NCc2cc([C@H]3CC[C@@H](C(F)(F)F)CC3)ncc2F)N1S(=O)(=O)c1ccc(F)cc1` [Example 54, (2S,4R,5S)-4-fluoro-1-(4-fluorophenyl)sulfonyl-N-[[5-fluoro-2-[4-(trifluoromethyl)cyclohexyl]-4-pyridyl]methyl]-5-methyl-pyrrolidine-2-carboxamide]: 8.20.
As to `C[C@H]1[C@H](F)C[C@@H](C(=O)NCc2cc([C@H]3C[C@H](OC(F)(F)F)C3)ncc2F)N1S(=O)(=O)c1ccc(F)cc1` [Example 140, (2S,4R,5S)-4-fluoro-1-(4-fluorophenyl)sulfonyl-N-[[5-fluoro-2-[3-(trifluoromethoxy)cyclobutyl]-4-pyridyl]methyl]-5-methyl-pyrrolidine-2-carboxamide], the pIC50 was 8.45.
The result for `C[C@H]1[C@H](F)C[C@@H](C(=O)NCc2cc(-c3cnc(C(F)(F)F)nc3)ncc2C(F)F)N1S(=O)(=O)c1ccc(F)cc1` [Example 102, (2S,4R,5S)—N-((5-(difluoromethyl)-2-(2-(trifluoromethyl)pyrimidin-5-yl)pyridin-4-yl)methyl)-4-fluoro-1-(4-fluorophenylsulfonyl)-5-methylpyrrolidine-2-carboxamide] reads 8.39; that for `C[C@H]1[C@H](F)C[C@@H](C(=O)NCc2cc(-c3cnc(C(F)(F)F)nc3)c(F)cn2)N1S(=O)(=O)c1ccc(F)c(F)c1` [Example 118, (2S,4R,5S)-1-(3,4-difluorophenyl)sulfonyl-4-fluoro-N-[[5-fluoro-4-[2-(trifluoromethyl)pyrimidin-5-yl]-2-pyridyl]methyl]-5-methyl-pyrrolidine-2-carboxamide], 8.64; that for `C[C@H]1[C@H](F)C[C@@H](C(=O)NCc2cc(-c3cnc(C(F)(F)F)nc3)ncc2C2CC2)N1S(=O)(=O)c1ccc(F)cc1` [Example 125, (2S,4R,5S)-N-[[5-cyclopropyl-2-[2-(trifluoromethyl)pyrimidin-5-yl]-4-pyridyl]methyl]-4-fluoro-1-(4-fluorophenyl)sulfonyl-5-methyl-pyrrolidine-2-carboxamide], 8.31.
Next, `C[C@H]1[C@H](F)C[C@@H](C(=O)NCc2cc(-c3cnc(C(F)(F)F)nc3)c(C#N)cn2)N1S(=O)(=O)c1ccc(F)cc1` [Example 86, (2S,4R,5S)-N-[[5-cyano-4-[2-(trifluoromethyl)pyrimidin-5-yl]-2-pyridyl]methyl]-4-fluoro-1-(4-fluorophenyl)sulfonyl-5-methyl-pyrrolidine-2-carboxamide]: 6.91; `O=C(NCc1ccc(F)c(-c2cnc(C(F)(F)F)s2)c1)[C@@H]1C[C@@H](F)CN1S(=O)(=O)c1ccc(F)cc1` [Example 77, (2S,4R)-4-fluoro-1-(4-fluorophenyl)sulfonyl-N-[[4-fluoro-3-[2-(trifluoromethyl)thiazol-5-yl]phenyl]methyl]pyrrolidine-2-carboxamide]: 7.13; `C[C@H]1[C@H](F)C[C@@H](C(=O)NCc2cc(-c3cnc(C(F)(F)F)nc3)ncc2F)N1S(=O)(=O)c1ccc(F)cc1` [Example 1, (2S,4R,5S)-4-fluoro-N-([5-fluoro-2-[2-(trifluoromethyl)pyrimidin-5-yl]pyridin-4-yl]methyl)-1-[(4-fluorobenzene)sulfonyl]-5-methylpyrrolidine-2-carboxamide]: 8.72.
In the case of `C[C@H]1[C@H](F)C[C@@H](C(=O)NCc2cc([C@H]3C[C@@H](OC(F)(F)F)C3)ncc2F)N1S(=O)(=O)c1ccc(F)cc1` [Example 127, (2S,4R,5S)-4-fluoro-1-(4-fluorophenyl)sulfonyl-N-[[5-fluoro-2-[3-(trifluoromethoxy)cyclobutyl]-4-pyridyl]methyl]-5-methyl-pyrrolidine-2-carboxamide], the pIC50 is 8.37.
For the molecule `C[C@H]1[C@H](F)C[C@@H](C(=O)NCc2cc(-c3cnc(C(F)(F)F)nc3)ccn2)N1S(=O)(=O)c1ccc(F)cc1` [Example 29, (2S,4R,5S)-4-fluoro-1-(4-fluorophenylsulfonyl)-5-methyl-N-((4-(2-(trifluoromethyl)pyrimidin-5-yl)pyridin-2-yl)methyl)pyrrolidine-2-carboxamide], the pIC50 is 6.95.
The result for `C[C@H]1[C@H](F)C[C@@H](C(=O)NCc2cc(-c3ccc(C(F)(F)F)nc3)ncn2)N1S(=O)(=O)c1ccc(F)cc1` [Example 23, (2S,4R,5S)-4-fluoro-1-(4-fluorophenyl)sulfonyl-5-methyl-N-[[6-[6-(trifluoromethyl)-3-pyridyl]pyrimidin-4-yl]methyl]pyrrolidine-2-carboxamide] reads 7.07; that for `C[C@H]1[C@H](F)C[C@@H](C(=O)NCc2cc(-c3cnc(C(F)(F)F)nc3)nc(N3CCC3)n2)N1S(=O)(=O)c1ccc(F)cc1` [Example 42, (2S,4R,5S)-N-((2-(azetidin-1-yl)-2′-(trifluoromethyl)-4,5′-bipyrimidin-6-yl)methyl)-4-fluoro-1-(4-fluorophenylsulfonyl)-5-methylpyrrolidine-2-carboxamide], 7.66; that for `O=C(NCc1cc(-c2cnc(C(F)(F)F)nc2)ncc1F)[C@@H]1CC[C@H](C(F)(F)F)N1S(=O)(=O)c1ccc(F)cc1` [Example 61, (2S,5R)-1-(4-fluorophenyl)sulfonyl-N-[[5-fluoro-2-[2-(trifluoromethyl)pyrimidin-5-yl]-4-pyridyl]methyl]-5-(trifluoromethyl)pyrrolidine-2-carboxamide], 7.67.

The term pIC50 denotes −log10 of the IC50, conventionally taken in molar units.

Values taken from patent US10179782B2, “Substituted sulfonamide compounds” (Genentech, Inc., priority 2016, dated 2019).
